Like-named read-outs stand apart in the source and are kept apart here.
Columns and labels:
Format in all cases: in vivo
Plasmopara viticola = test: Test B: grape downy mildew, spray 24 h after inoculation (disease rating, 100 = 100% disease control); settings: for pest or weed control at 40 ppm: Plasmopara viticola, 144 h, read-out: Test B disease rating (100 = 100% disease control, 0 = no disease control)
From the text: (§1) The test compounds were first dissolved in acetone in an amount equal to 3% of the final volume and then suspended at the desired concentration (in ppm) in acetone and purified water (50/50 mix by volume) containing 250 ppm of the surfactant Trem® 014 (polyhydric alcohol esters). The resulting test suspensions were then used in tests A-E. Spraying a 200 ppm test suspension to the point of run-off on the test plants was the equivalent of a rate of 500 g/ha.
Grape seedlings were inoculated with a spore suspension of Plasmopara viticola (the causal agent of grape downy mildew) and incubated in a saturated atmosphere at 20° C. for 24 h. After a short drying period, the test suspension was sprayed to the point of run-off on the grape seedlings and then moved to a growth chamber at 20° C. for 5 days, after which the test units were placed back into a saturated atmosphere at 20° C. for 24 h. Upon removal, disease ratings were made.
(§2) Results for Tests A-F are given in Table A. In the table, a rating of 100 indicates 100% disease control and a rating of 0 indicates no disease control (relative to the controls). A dash (-) indicates no test results.

Phytophthora infestans [1] = test: whole plant or invertebrate; settings: for Test D disease rating (100 = 100% disease control, 0 = no disease control): tomato late blight; for pest or weed control at 40 ppm: Phytophthora infestans, in Solanum lycopersicum, topical, 96 h, read-out: Test D disease rating (100 = 100% disease control, 0 = no disease control)
[2] = system: Erysiphe graminis f. sp. tritici; test: Test E: wheat powdery mildew, spray the day before inoculation (disease rating, 100 = 100% disease control); settings: for pest or weed control at 40 ppm: Blumeria graminis, topical, 168 h, read-out: Test E disease rating (100 = 100% disease control, 0 = no disease control)
From the text: as §1
The test suspension was sprayed to the point of run-off on wheat seedlings. The following day the seedlings were inoculated with a spore dust of Erysiphe graminis f. sp. tritici, (the causal agent of wheat powdery mildew) and incubated in a growth chamber at 20° C. for 7 days, after which disease ratings were made.
as §2

Phytophthora infestans [3] = test: whole plant or invertebrate; settings: for Test C disease rating (100 = 100% disease control, 0 = no disease control): tomato late blight; for pest or weed control at 40 ppm: Phytophthora infestans, in Solanum lycopersicum, 144 h, read-out: Test C disease rating (100 = 100% disease control, 0 = no disease control)
[4] = spray 24 h after inoculation, compounds without asterisk (not 40 or 10 ppm)
[5] = spray 17 h after inoculation, compounds without asterisk (not 40 or 10 ppm)
[6] = spray the day before inoculation, compounds without asterisk (not 40 or 10 ppm)
[7] = sprayed 24 h after inoculation, unmarked compounds (no asterisk, not 40 or 10 ppm)
[8] = sprayed 17 h after inoculation, unmarked compounds (no asterisk, not 40 or 10 ppm)
[9] = sprayed the day before inoculation, 7 days at 20° C., unmarked compounds (no asterisk, not 40 or 10 ppm)
[10] = sprayed the day before inoculation, unmarked compounds (no asterisk, not 40 or 10 ppm)
[11] = spray 24 h after inoculation, tested at 10 ppm
[12] = spray 17 h after inoculation, tested at 10 ppm
[13] = spray the day before inoculation, tested at 10 ppm
[14] = spray 24 h after inoculation, tested at 40 ppm
[15] = spray the day before inoculation, tested at 40 ppm

Compound | Test B disease rating (100 = 100% disease control, 0 = no disease control) (Plasmopara viticola; [4]) [%] | Test D disease rating (100 = 100% disease control, 0 = no disease control) (Phytophthora infestans [1]; [5]) [%] | Test E disease rating (100 = 100% disease control, 0 = no disease control) [2, 6] [%] | Test C disease rating (100 = 100% disease control, 0 = no disease control) (Phytophthora infestans [3]; [6]) [%] | further results
C[C@H](c1ccccc1)N(C)C(=O)c1csc(C2CCN(C(=O)Cc3cc(C(C)(C)C)no3)CC2)n1 [compound 93] | 9 | 0 | 0 | 26 | 
Cc1cc(C(F)(F)F)nn1CC(=O)N1CCC(c2nc(C(=O)N(C)C3CCCC4CCCCC43)cs2)CC1 (mixture of isomers) [compound 254] |  |  |  |  | Test B disease rating (100 = 100% disease control, 0 = no disease control) (Plasmopara viticola; [7]): 95; Test D disease rating (100 = 100% disease control, 0 = no disease control) (Phytophthora infestans [1]; [8]): 99; Test E disease rating (100 = 100% disease control, 0 = no disease control) [2, 9]: 0; Test C disease rating (100 = 100% disease control, 0 = no disease control) (Phytophthora infestans [3]; [10]): 99
Cc1cc(C(F)(F)F)nn1CC(=O)N1CCC(c2nc(C(=O)N(C)C3CCSc4ccccc43)cs2)CC1 (stereo not shown) [compound 180] |  |  |  |  | Test B disease rating (100 = 100% disease control, 0 = no disease control) (Plasmopara viticola; [11]): 47%; Test D disease rating (100 = 100% disease control, 0 = no disease control) (Phytophthora infestans [1]; [12]): 92%; Test E disease rating (100 = 100% disease control, 0 = no disease control) [2, 13]: 0%; Test C disease rating (100 = 100% disease control, 0 = no disease control) (Phytophthora infestans [3]; [13]): 100%
Cc1cc(C(F)(F)F)nn1CC(=O)N1CCCN(c2nc(C(=O)N(C)[C@@H]3CCCc4ccccc43)cs2)CC1 [compound 241] | 17 | 68 | 47 | 99 | 
CC[C@H](c1ccccc1)N(C)C(=O)c1coc(C2CCN(C(=O)Cn3nc(C(F)(F)F)cc3C)CC2)n1 [Compound 152, N-methyl-2-[1-[[5-methyl-3-(trifluoromethyl)-1H-pyrazol-1-yl]acetyl]-4-piperidinyl]-N-[(1R)-1-phenylpropyl]-4-oxazolecarboxamide] |  |  |  |  | pest or weed control at 40 ppm (Plasmopara viticola; [14]): 99%; pest or weed control at 40 ppm (Phytophthora infestans [1]): 99%; pest or weed control at 40 ppm [2, 15]: 0%; pest or weed control at 40 ppm (Phytophthora infestans [3]): 100%
Cc1cc(C(F)(F)F)nn1CC(=O)N1CCC(c2nc(C(=O)N(C)C3CCc4cc(Cl)ccc43)cs2)CC1 (stereo not shown) [compound 221] |  |  |  |  | Test B disease rating (100 = 100% disease control, 0 = no disease control) (Plasmopara viticola; [11]): 77%; Test D disease rating (100 = 100% disease control, 0 = no disease control) (Phytophthora infestans [1]; [12]): 98%; Test E disease rating (100 = 100% disease control, 0 = no disease control) [2, 13]: 0%; Test C disease rating (100 = 100% disease control, 0 = no disease control) (Phytophthora infestans [3]; [13]): 99%
Cc1cc(C(F)(F)F)nn1CC(=O)N1CCC(c2nc(C(=O)N(C)C3c4ccccc4CC3C)cs2)CC1 (stereo not shown) [Compound 226, N-(2,3-dihydro-2-methyl-1H-inden-1-yl)-N-methyl-2-[1-[[5-methyl-3-(trifluoromethyl)-1H-pyrazol-1-yl]acetyl]-4-piperidinyl]-4-thiazolecarboxamide] |  |  |  |  | pest or weed control at 40 ppm (Plasmopara viticola; [14]): 100%; pest or weed control at 40 ppm (Phytophthora infestans [1]): 99%; pest or weed control at 40 ppm [2, 15]: 0%; pest or weed control at 40 ppm (Phytophthora infestans [3]): 100%
Cc1ccc(C)c(CC(=O)N2CCC(c3nc(C(=O)N(C)C4CCc5ccccc54)cs3)CC2)c1 (stereo not shown) [compound 100] | 94 | 99 | 0 | 100 | 
Cc1ccc(C)c(CC(=O)N2CCC(c3nc(C(=O)N(C)C(CC(C)C)c4ccccc4)cs3)CC2)c1 (stereo not shown) [compound 97] | 53 | 0 | 0 | 86 | 
C[C@H](c1ccccc1)N(C)C(=O)c1csc(C2CCN(C(=O)Cn3cc(Br)cn3)CC2)n1 [compound 71] | 34 | 0 | 0 | 74 | 
CN(C(=O)c1csc(C2CCN(C(=O)Cn3nc(C(F)(F)F)cc3Cl)CC2)n1)[C@@H]1CCCc2ccccc21 [Compound 249, 2-[1-[[5-chloro-3-(trifluoromethyl)-1H-pyrazol-1-yl]acetyl]-4-piperidinyl]-N-methyl-N-[(1R)-1,2,3,4-tetrahydro-1-naphthalenyl]-4-thiazolecarboxamide] |  |  |  |  | pest or weed control at 40 ppm (Plasmopara viticola; [14]): 100%; pest or weed control at 40 ppm (Phytophthora infestans [1]): 99%; pest or weed control at 40 ppm [2, 15]: 0%; pest or weed control at 40 ppm (Phytophthora infestans [3]): 100%
CN(Cc1cccnc1)C(=O)c1csc(C2CCN(C(=O)Cc3cccc(C(F)(F)F)c3)CC2)n1 [compound 163] | 24 | 0 | 0 | 55 | 
Cc1cn(CC(=O)N2CCC(c3nc(C(=O)N(C)[C@H](C)c4ccccc4)cs3)CC2)c(C)n1 [compound 121] | 0 | 0 | 0 | 47 | 
CCCCC(c1ccccc1)N(C)C(=O)c1csc(C2CCN(C(=O)Cc3cc(C)ccc3C)CC2)n1 (stereo not shown) [compound 85] | 99 | 9 | 32 | 99 | 
Cc1cc(C(F)(F)F)nn1CC(=O)N1CCC(c2nc(C(=O)NC3CCCc4ccccc43)cs2)CC1 (stereo not shown) [compound 294] |  |  |  |  | Test B disease rating (100 = 100% disease control, 0 = no disease control) (Plasmopara viticola; [7]): 99; Test D disease rating (100 = 100% disease control, 0 = no disease control) (Phytophthora infestans [1]; [8]): 96; Test E disease rating (100 = 100% disease control, 0 = no disease control) [2, 9]: 0; Test C disease rating (100 = 100% disease control, 0 = no disease control) (Phytophthora infestans [3]; [10]): 100
CC[C@H](c1ccccc1)N(C)C(=O)c1coc(C2CCN(C(=O)Cc3cc(C)ccc3C)CC2)n1 [Compound 154, 2-[1-[(2,5-dimethylphenyl)acetyl]-4-piperidinyl]-N-methyl-N-[(1R)-1-phenylpropyl]-4-oxazolecarboxamide] |  |  |  |  | pest or weed control at 40 ppm (Plasmopara viticola; [14]): 99%; pest or weed control at 40 ppm (Phytophthora infestans [1]): 68%; pest or weed control at 40 ppm [2, 15]: 0%; pest or weed control at 40 ppm (Phytophthora infestans [3]): 100%
C[C@H](c1ccccc1)N(C)C(=O)c1csc(C2CCN(C(=O)Cn3cnc(C(F)(F)F)n3)CC2)n1 [compound 122] | 28 | 96 | 17 | 53 | 
Cc1ccc(C)c(CC(=O)N2CCC(c3nc(C(=O)N(C)[C@H]4CCc5ccccc54)cs3)CC2)c1 [compound 131] | 77 | 62 | 0 | 55 | 
C[C@@H](NC(=O)c1csc(C2CCN(C(=O)Cc3cccc(Br)c3)CC2)n1)C1CCCCC1 [compound 272] |  |  |  |  | Test B disease rating (100 = 100% disease control, 0 = no disease control) (Plasmopara viticola; [7]): 14; Test D disease rating (100 = 100% disease control, 0 = no disease control) (Phytophthora infestans [1]; [8]): 0; Test E disease rating (100 = 100% disease control, 0 = no disease control) [2, 9]: 0; Test C disease rating (100 = 100% disease control, 0 = no disease control) (Phytophthora infestans [3]; [10]): 50
Cc1nc(C)n(CC(=O)N2CCC(c3nc(C(=O)N(C)[C@H](C)c4ccccc4)cs3)CC2)n1 [compound 120] | 7 | 100 | 0 | 51 | 
Cc1cc(C(F)(F)F)nn1CC(=O)N1CCC(c2nc(C(=O)N3CC=C(c4ccccc4)CC3)cs2)CC1 [compound 311] |  |  |  |  | Test B disease rating (100 = 100% disease control, 0 = no disease control) (Plasmopara viticola; [7]): 31; Test D disease rating (100 = 100% disease control, 0 = no disease control) (Phytophthora infestans [1]; [8]): 0; Test E disease rating (100 = 100% disease control, 0 = no disease control) [2, 9]: 28; Test C disease rating (100 = 100% disease control, 0 = no disease control) (Phytophthora infestans [3]; [10]): 83
Cc1ccccc1C(C)N(C)C(=O)c1csc(C2CCN(C(=O)Cn3nc(C(F)(F)F)cc3C)CC2)n1 (stereo not shown) [compound 243] |  |  |  |  | Test B disease rating (100 = 100% disease control, 0 = no disease control) (Plasmopara viticola; [14]): 91%; Test D disease rating (100 = 100% disease control, 0 = no disease control) (Phytophthora infestans [1]; spray 17 h after inoculation, tested at 40 ppm): 82%; Test E disease rating (100 = 100% disease control, 0 = no disease control) [2, 15]: 0%; Test C disease rating (100 = 100% disease control, 0 = no disease control) (Phytophthora infestans [3]; [15]): 86%
